This passage reports viability, T/C and IC50 results from PubChem BioAssay AID2060507 (Molecular Pharmacology Branch, DTP, NCI, 2025).

Several values for one entry are separate records, joined by “and”; a condition that tells them apart may be missing. Equal entries are not always repeated.

The experiment deals with 519858-162-T-J1-PDC complex spheroid viability. The experiment in a line: Anticancer human tumor 519858-162-T-J1-PDC patient-derived colon adenocarcinoma cell line growth inhibition [GQUAD]. To be noted: for viability, T/C: stronger effect = lower value. An excerpt:
DNA G-quadruplex Stabilizer Agents in Combinations in Complex Spheroids
A high-throughput screen of multi-cell type tumor spheroids was designed to identify active combinations of DNA G-quadruplex stabilizer agents and targeted small molecules. Complex spheroids include a stromal component modeled by human endothelial cells (HUVEC) and fibroblasts modeled by human mesenchymal stem cells (MSCs). The concentration ranges selected for each drug and investigational agent were based upon clinically achievable concentrations if the clinical Cmax of the agent was known.
Compounds. The drugs and investigational agents: pidnarulex (CX-5461; NSC782164), APTO-253 (NSC789042), BRACO-19 (NSC847499), peposertib (NSC802822), ceralasertib (NSC780249), elimusertib (NSC800525), camonsertib (NSC841442), AZD-1390 (NSC803789), olaparib (NSC753686), talazoparib (NSC767125), ART-558 (NSC835418), sotorasib (NSC818433), MRTX-1133 (NSC836407), SN-38 (NSC673596), topotecan (NSC609699), etoposide (NSC141540), doxorubicin (NSC123127), gemcitabine (NSC613327), 5-fluorouracil (NSC19893), paclitaxel (NSC125973), vemurafenib (NSC761431), panobinostat (NSC761190), R-306465 (JNJ-16241199; NSC773264), adavosertib (NSC754352), TP-3654 (NSC805149), carboplatin (NSC241240), KSQ-4279 (NSC840948), and staurosporine (NSC755774) were obtained from the National Cancer Institute (NCI) Developmental Therapeutics Program Chemical Repository (34). The FDA-approved anticancer drug set is available from the NCI Developmental Therapeutics Program. […] The stock solutions were prepared in dimethyl sulfoxide (DMSO, Sigma-Aldrich, St. Louis, MO, cat. D2650) at 800-fold the tested concentration and stored at -70 degrees C prior to their use. All drugs and investigational agents were tested over a range starting from a high concentration at or near the clinical Cmax and decreasing in half-log increments. If the clinical Cmax for an agent had not been determined, the highest concentration tested was 10 microM.
2.3 Cell Culture. All cells were maintained in an incubator at 37 degrees C and 5% CO2 with 95% humidity. The PDC lines were cultured according to standard operating procedures established by the NCI PDMR. All PDCs were thawed and cultured in Matrigel-coated flasks prepared with a working solution of 1X Ham's F-12 nutrient mix, without supplementation (Invitrogen, cat. 11765054), 100 U/mL penicillin-streptomycin (Invitrogen, cat. 15140122), and 2.5% Matrigel (Corning Inc., cat. 354248) for the first three passages. The 857933-349-R-J2-PDC line was cultured in 6C/Colon 1B media, which includes advanced DMEM/F-12 (Thermo Fisher Scientific, cat. 12634028), 10 mM HEPES (Thermo Fisher Scientific, cat. 15630080), 1X GlutaMAX supplement (Thermo Fisher Scientific, cat. 35050061), 0.1 mg/mL primocin (InvivoGen, cat. ant-pm-2), 10% defined fetal bovine serum, heat inactivated (HyClone Laboratories Inc., cat. SH30070.03HI), 50% L-WRN conditioned media (ATCC, cat. CRL-3276), 1.25 mM N-Acetyl-L-cysteine (Sigma-Aldrich, cat. A9165), 10 mM nicotinamide (Sigma-Aldrich, cat. N0636), 1X B-27 supplement (Thermo Fisher Scientific, cat. 17504044), 1X N-2 supplement (Thermo Fisher Scientific, cat. 17502048), 10 microM Y-27632 dihydrochloride (Tocris Bioscience, cat. 1254), and 50 ng/mL human EGF recombinant protein (Thermo Fisher Scientific, cat. PHG0311). The 485176-168-R4-J1-PDC line was cultured in Panc media, which includes all 6C/Colon 1B media components plus 100 ng/mL human FGF-10 (Thermo Fisher Scientific, cat. 100-26), 500 nM SB-431542 (Selleckchem, cat. S1067), and gastrin (Tocris, cat. 3006).
[…]
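Further: spheroids exposed to compounds for 7 days.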

One may read the viability, T/C as the result in the treated group divided by that in the control group, in per cent. The term IC50 denotes the concentration that inhibits the measured activity by half. Consider `CC[C@@]1(O)C(=O)OCc2c1cc1n(c2=O)Cc2cc3c(CN(C)C)c(O)ccc3nc2-1`, for which the viability, T/C reads like this: (compound 0.000999 µM) 86.1% and 63.7%; (compound 0.00316 µM) 69.6% and 123%; (compound 0.00999 µM) 93.4% and 97%; (compound 0.0316 µM) 141% and 107%; (compound 0.0999 µM) 90.9% and 92.7%; (compound 0.316 µM) 75.1% and 69.3%. For the same compound, under “curve of compound”, the IC50 is more than 0.316 µM.
Turning to `COc1cccc2c1C(=O)c1c(O)c3c(c(O)c1C2=O)CC(O)(C(=O)CO)CC3OC1CC(N)C(O)C(C)O1` (stereo not given), the viability, T/C reads like this: (compound 0.0316 µM) 72.4% and 79.2% and 88.8%; (compound 0.1 µM) 87.7% and 101% and 80.3%; (compound 0.316 µM) 96.6% and 91.6% and 71.9%; (compound 1 µM) 104% and 73.1% and 83.7%; (compound 3.16 µM) 68.2% and 95.1% and 53.9%; (compound 10 µM) 82.8% and 70.4% and 46.2%. For the same compound, where the note is “curve of compound”, the IC50 was > 10 µM and 5.66 µM.
With `CC(C)n1c(=O)n(C)c2cnc3cc(F)c(-c4ccc(OCCCN5CCCCC5)nc4)cc3c21`, the viability, T/C (compound 0.0316 µM) is 123% and 93.8%; the viability, T/C (compound 0.1 µM) was 107% and 102%; the viability, T/C (compound 0.316 µM) is 86.9% and 69.8%; the viability, T/C (compound 1 µM) was 108% and 91.8%; the viability, T/C (compound 3.16 µM) is 73.7% and 81.7%; the viability, T/C (compound 10 µM) was 120% and 93.2%. For the setting “curve of compound”, the IC50 is more than 10 µM.
Turning to `CC1COCCN1c1cc(-c2ccnn2C)c2ccnc(-c3ccn[nH]3)c2n1` (stereo not given), the viability, T/C (compound 0.0316 µM) is 103% and 94%; the viability, T/C (compound 0.1 µM) is 93.7% and 82.9%; the viability, T/C (compound 0.316 µM) is 96.7% and 65%; the viability, T/C (compound 1 µM) is 117% and 98.3%; the viability, T/C (compound 3.16 µM) was 58.8% and 39.7%; the viability, T/C (compound 10 µM) is 34.3% and 26.3%. Further, the IC50 (curve of compound) was 4.78 µM and 2.43 µM.
Consider `CCCS(=O)(=O)Nc1ccc(F)c(C(=O)c2c[nH]c3ncc(-c4ccc(Cl)cc4)cc23)c1F` + Cc1[nH]c2ccc(F)cc2c1-c1nc2c3cccnc3c3ncccc3c2[nH]1, for which the IC50 (curve of first compound, second compound 0.0316 µM) is more than 10 µM; the IC50 (curve of first compound, second compound 0.1 µM) is more than 10 µM; the concentration for half-maximal inhibition (IC50) (curve of first compound, second compound 0.316 µM) is more than 10 µM; the IC50 (curve of first compound, second compound 1 µM) is more than 10 µM; the IC50 (curve of first compound, second compound 3.16 µM) is 7 µM; the IC50 (curve of first compound, second compound 10 µM) is more than 10 µM. Further, the viability, T/C is 90.7% (second compound 0.0316 µM, first compound 0.0316 µM); 92% (second compound 0.0316 µM, first compound 0.1 µM); 83.7% (second compound 0.0316 µM, first compound 0.316 µM); 129% (second compound 0.0316 µM, first compound 1 µM); 135% (second compound 0.0316 µM, first compound 3.16 µM); 101% (second compound 0.0316 µM, first compound 10 µM). The viability, T/C by setting is: (second compound 0.1 µM, first compound 0.0316 µM) 103%; (second compound 0.1 µM, first compound 0.1 µM) 119%; (second compound 0.1 µM, first compound 0.316 µM) 97.9%; (second compound 0.1 µM, first compound 1 µM) 113%; (second compound 0.1 µM, first compound 3.16 µM) 87.6%; (second compound 0.1 µM, first compound 10 µM) 107%. Besides, the viability, T/C runs as follows: (second compound 0.316 µM, first compound 0.0316 µM) 101%; (second compound 0.316 µM, first compound 0.1 µM) 116%; (second compound 0.316 µM, first compound 0.316 µM) 108%; (second compound 0.316 µM, first compound 1 µM) 75.4%; (second compound 0.316 µM, first compound 3.16 µM) 112%; (second compound 0.316 µM, first compound 10 µM) 119%. Moreover, the viability, T/C is 62.5% (second compound 1 µM, first compound 0.0316 µM); 74.1% (second compound 1 µM, first compound 0.1 µM); 99.3% (second compound 1 µM, first compound 0.316 µM); 99.2% (second compound 1 µM, first compound 1 µM); 115% (second compound 1 µM, first compound 3.16 µM); 101% (second compound 1 µM, first compound 10 µM). The viability, T/C is 86.3% (second compound 3.16 µM, first compound 0.0316 µM); 51.3% (second compound 3.16 µM, first compound 0.1 µM); 81.9% (second compound 3.16 µM, first compound 0.316 µM); 72% (second compound 3.16 µM, first compound 1 µM); 86% (second compound 3.16 µM, first compound 3.16 µM); 38.7% (second compound 3.16 µM, first compound 10 µM). For the same compound, the viability, T/C is 79.8% (second compound 10 µM, first compound 0.0316 µM); 53.7% (second compound 10 µM, first compound 0.1 µM); 60.8% (second compound 10 µM, first compound 0.316 µM); 89.2% (second compound 10 µM, first compound 1 µM); 105% (second compound 10 µM, first compound 3.16 µM); 109% (second compound 10 µM, first compound 10 µM).
